Data as given in paper PMC12508156, “Non-canonical dihydrolipoyl transacetylase promotes chemotherapy resistance via mitochondrial tetrahydrofolate signaling” (Nature Communications, 2025).
Values joined by “and” are separate entries in the source; they are usually repeats but may differ in a detail not shown here. Identical values can stand only once.

How the values were obtained:
[1] = system: KB-3-1cisR xenograft tumors; assay: KB-3-1cisR xenograft tumor growth (volume, weight); type: in vivo, athymic nu/nu mice; set-up: unit not given here; settings: cisplatin 5 mg/kg i.p. twice a week, endpoint, n=1-8: individual mice, listed as cis
Description: All animal procedures were conducted based on the protocol (DAR-PROTO-201700885) approved by the Emory University Institutional Animal Care and Use Committee. Female athymic nu/nu mice (Hsd:Athymic Nude-Foxn1nu, 6-week-old; Envigo) were housed under specific pathogen-free (SPF) conditions in the Emory University animal facility. […] Mice were subcutaneously injected into the flank with 1 × 10^6 KB-3-1^cisR cells with or without DLAT knockdown. […] Tumors were collected at the experimental endpoint, and tumor proliferation was assessed using Ki-67 IHC staining. The localization, penetration, and efficacy of DMp39 were monitored by assessing the acetyl-[…] levels in tumors and fluorescence imaging analysis using an IVIS imaging system. Drug-induced organ toxicities, including splenomegaly, liver damage, and kidney injury, were monitored by assessing spleen index, alanine transaminase activity, and cystatin C levels in plasma.

HT-29 cells = assay: Apoptotic cell death (annexin V/PI staining); type: cell-based, human; settings: Supple Fig 6B
Description: (§1) Cell viability was determined using the CellTiter-Glo Luminescent Cell Viability Assay. […] Subsequently, the cells were cultured in complete medium for an additional 10 days, and the resulting colonies were visualized by staining with crystal violet and quantified using ImageJ software. For cell cycle analysis, cells fixed with 70% ethanol were stained with RNase A (100 µg/mL) and propidium iodide (50 μg/ml) for 30 min at 37 °C, and DNA content distribution was measured using flow cytometry (BD Symphony A3) and analyzed with FlowJo software (v10.9). Apoptotic cell death was assessed via FITC-conjugated annexin V and propidium iodide staining.
(§2) Colon cancer cell lines, HCT116 (a) and HT-29 (b), were stably transduced with DLAT shRNA harboring lentivirus, followed by annexin V staining and CellTiter Glo Viability assay. Error bars represent SD and are from 3 independent biological replicates. P values were obtained by one-way ANOVA.
(§3) (1 picture or pasted object on this page, not shown here)

HCT116 cells = assay: Apoptotic cell death (annexin V/PI staining); type: cell-based, human; settings: Supple Fig 6A
Description: as §1, §2, §3

KB-3-1 cells = settings: read-out: cisplatin IC50; parental KB-3-1 cells; cited from earlier work
Source text: The RNAi library contains 328 shRNA clones, and each gene was targeted by 2 ~ 8 clones (Fig. 1a). Eleven genes, including DLAT, were selected as unexplored lead hits with cisplatin-sensitizing potential and were further evaluated in A549^cisR, H1299, and KB-3-1^cisR, and two acetyltrans ...

cellular ROS = assay: Cellular ROS level (CM-H2DCFDA staining); type: cell-based, human
Description: (§4) Cellular metabolic states were examined through various assays. To gauge the levels of total intracellular or mitochondrial reactive oxygen species (ROS), cells were stained with CM-H2DCFDA or mitoSOX, respectively. Intracellular H2O2, NADPH, acetyl-CoA, and GSH/GSSG ratios were quantified using commercial assay kits as listed in the Reagents. Intracellular ATP levels were determined utilizing the ATP bioluminescent somatic cell assay and normalized to the total protein concentrations. The de novo synthesized RNA and proteins were assessed in cancer cells using commercial assays following the manufacturer’s protocols. In brief, O-propargyl-puromycin or uridine analog, 5-EU, was applied to stop translation or modify RNA. Polypeptides or modified RNA were measured using fluorescent azide with Ex/Em at 494/521 nm. PDC activity was determined by measuring the reduction of NAD+ to NADH during the conversion of pyruvate into acetyl-CoA.

GSH/GSSG = GSH/GSSG ratio (GSH/GSSG-Glo); type: cell-based, human
Description: as §4
Supplementary Fig. 2: GSH/GSSG ratio and NADPH level change upon DLAT knockdown and cisplatin treatment. A549cisR (a) and KB-3-1cisR (b) cells were transduced with control or […]
µg/ml; KB-3-1cisR: 5 µg/ml) for 24 h. The GSH/GSSG ratio and relative NADPH levels were measured using GSH/GSSG-Glo Assay and NADP/NADPH-Glo Assay, respectively. Error bars represent SD and are from 4 independent biological replicates for the upper panels of (a,b) and 3 for the lower panels of (a,b). P values were determined by one-way ANOVA.
as §3

N.N.[Cl][Pt][Cl] [cisplatin]
Tumor weight ([1]; KB-3-1cisR pLKO.1 xenograft): 0.88 and 0.77 and 0.52 and 1.65 and 1.63 and 1.39 and 1.43 and 1.01
Tumor weight ([1]; KB-3-1cisR shDLAT #1 xenograft): 0.29 and 0.41 and 0.58 and 0.1 and 0.06 and 0.15 and 0.16 and 0.23
Tumor weight ([1]; KB-3-1cisR shDLAT #2 xenograft): 0.63 and 0.5 and 0.66 and 0.02 and 0.08 and 0.19 and 0.34 and 0.36
Apoptotic death (HT-29 cells; HT-29, pLKO.1 control cells + cis, replicate n=2): 20
Apoptotic death (HT-29 cells; HT-29, pLKO.1 control cells + cis, replicate n=3): 20.2
Apoptotic death (HT-29 cells; HT-29, shDLAT cells + cis, replicate n=1): 20.2
Apoptotic death (HT-29 cells; HT-29, shDLAT cells + cis, replicate n=2): 22.2
Apoptotic death (HT-29 cells; HT-29, shDLAT cells + cis, replicate n=3): 22.9
Apoptotic death (HCT116 cells; HCT116, pLKO.1 control cells + cis, replicate n=2): 17.9
Apoptotic death (HCT116 cells; HCT116, shDLAT cells + cis, replicate n=2): 15.5
Apoptotic death (HCT116 cells; HCT116, shDLAT cells + cis, replicate n=3): 18.3
IC50 (KB-3-1 cells): 8.4 µM
ROS level (cellular ROS; A549cisR cells, pLKO.1, n=1): 0.9837
ROS level (cellular ROS; A549cisR cells, pLKO.1, n=2): 1.0031
ROS level (cellular ROS; A549cisR cells, pLKO.1, n=3): 1.0132
ROS level (cellular ROS; A549cisR, CTL, sheet Figure 5G, replicate n=1): 1.052
ROS level (cellular ROS; A549cisR, CTL, sheet Figure 5G, replicate n=2): 0.9938
ROS level (cellular ROS; A549cisR, CTL, sheet Figure 5G, replicate n=3): 0.9539
ROS level (cellular ROS; KB-3-1cisR cells, pLKO.1, n=1): 1.037
ROS level (cellular ROS; KB-3-1cisR cells, pLKO.1, n=2): 0.9651
ROS level (cellular ROS; KB-3-1cisR cells, pLKO.1, n=3): 0.9984
ROS level (cellular ROS; KB-3-1cisR cells, shDLAT, n=1): 2.065
ROS level (cellular ROS; KB-3-1cisR cells, shDLAT, n=2): 2.047
ROS level (cellular ROS; KB-3-1cisR, CTL, sheet Figure 5G, replicate n=1): 0.9879
ROS level (cellular ROS; KB-3-1cisR, CTL, sheet Figure 5G, replicate n=2): 1.001
ROS level (cellular ROS; KB-3-1cisR, CTL, sheet Figure 5G, replicate n=3): 1.011
ROS level (cellular ROS; KB-3-1cisR, shDLAT+Flag-MTHFD2 (K44Q), sheet Figure 5G, replicate n=1): 1.351
ROS level (cellular ROS; KB-3-1cisR, shDLAT+Flag-MTHFD2 (K44Q), sheet Figure 5G, replicate n=2): 1.32
GSH/GSSG (GSH/GSSG; A549cisR cells, pLKO.1, n=2): 20.0066
GSH/GSSG (GSH/GSSG; A549cisR cells, shDLAT, n=3): 8.945
GSH/GSSG (GSH/GSSG; KB-3-1cisR cells, shDLAT, n=1): 6.046
GSH/GSSG (GSH/GSSG; KB-3-1cisR cells, shDLAT, n=2): 6.2227
